Like-named read-outs stand apart in the source and are kept apart here.
What was measured:
SW480 cells [1] = assay: Sphingomyelin levels, bacterial sphingomyelinase method; format: cell-based, human
Protocol: (§1) FIGS. 4A, 4B, 4C, 4D, 4E and 4F. The role of arachidonic acid in NSAID-mediated apoptosis. […] HCT116 and SW480 cells were treated with the indicated concentrations of SUS or INDO. Arachidonic acid (AA) levels were determined by measuring release of ^3 H-AA into the media as previously described (18). Data are indicated as the mean of three replicates with the error bars corresponding to the standard deviation. In addition, the nature of the released radiolabeled material was evaluated by thin layer chromatography as previously described (28). […] HCT116 and SW480 cells were incubated with ^3 H-choline chloride (0.5 mCi ml^-1, 80 Ci mmol^-1, New England Nuclear) for 48 hours. After labeling, cells were washed with HBSS (Gibco) and treated with SUS or INDO for the indicated times. Sphingomyelin measurements were performed using the bacterial sphingomyelinase method as previously described (18). Sphingomyelin levels at each time point are plotted as a percentage of that in untreated control cells. For each point, the mean of at least two independent experiments is presented with the error bars corresponding to the standard deviations. […] SW480 cells were treated with 200 μM arachidonic acid (AA), SUS (SUS) or behenic acid as a control fatty acid (FA) as indicated. […] SW480 cells were treated with suboptimal doses (100 μM) of arachidonic acid (AA), SUS (SUS), or both (AA+SUS) as indicated. After 48 hours of treatment, apoptosis and ceramide increases were assessed as described for FIGS. 1 and 3, respectively. Ceramide increases (left axis) were expressed as fold increases relative to untreated cells. Apoptosis (right axis) was expressed as percent apoptotic cells minus percent apoptotic cells in untreated cells (5.6%+/-2.4). Data are indicated as the mean of duplicates with the error bars corresponding to the standard deviation.
(§2) To test whether the increased ceramide was associated with evidence of augmented sphingomyelinase activity, we measured total sphingomyelin levels after SUS treatment. […] We also measured neutral sphingomyelinase activity in lysates from the treated cells and no differences were found. Neutral sphingomyelinase activity was assayed as described (18). After cell lysis, protein concentrations were determined using the Bradford method (Bio-Rad) and […] cellular protein was used in each assay. Neutral sphingomyelinase activity was determined by measuring the rate of hydrolysis of ^14 C-labelled sphingomyelin (Amersham). SW480 and HCT116 cell lines were treated with SUS (50, 200, and 600 μM) for 6 to 24 hours.

HCT116 cells [2] = assay: as above; format: cell-based, human
Protocol: as §1, §2

SW480 cells [3] = format: cell-based, human; conditions: SUS 100 μM
COX in SW480 cells = assay: COX activity in treated cells; format: cell-based, human
[4] = test system: primary human diploid fibroblast (HDF); assay: Apoptosis in primary fibroblasts; format: cell-based; conditions: 200 μM SUS, 48 hours, read-out: cells that had undergone apoptosis
Protocol: This ability of SUS is not limited to colon cancer cells; primary fibroblasts and immortalized keratinocytes can increase ceramide levels and undergo apoptosis in response to SUS. […] Forty-eight hours after exposure to 200 μM SUS greater than 70% of the cells had undergone apoptosis and ceramide levels were 8.2 and 4.7 fold increased in HDF and HaCat cells, respectively. This is consistent with NSAIDs' ability to reduce tumor formation in a variety of tissues (19) and their adverse effects on normal gastric mucosa, but it fails to explain the apparent greater sensitivity of tumor cells. The in vivo effect will likely depend on the local concentration of the NSAID in the incipient tumor microenvironment as well as the target cell's "lipid biostat" (20). The fact that the concentration of SUS is higher in the intestines than in other organs, due to enterohepatic circulation and due to the metabolic activation of sulindac to SUS by gut flora (21), may be responsible for its particular efficacy in intestinal tumorigenesis.

[5] = test system: immortalized human keratinocytes (HaCat); assay: Ceramide levels in immortalized keratinocytes; format: cell-based; conditions: 48 h, read-out: increase in ceramide levels
Protocol: (§3) Ceramide levels were measured using the Escherichia coli diacylglycerol (DAG) kinase assay as previously described (30) with the following modifications. After the initial lipid extraction, phases were broken by adding 2 ml chloroform and 2 ml 1M NaCl and lipids were washed with 1M NaCl prior to drying under nitrogen (32, 33). After solubilization, samples were sonicated for 15 seconds. The DAG reaction was performed for 30 minutes at 25° C. in a 100 μl reaction volume with 3.5 μg DAG kinase (Calbiochem) and […] γ^32 P-ATP (Dupont NEN, 6000 Ci/mmol). After extraction of the labeled lipids, the lower chloroform phase was washed with 1% HCl prior to drying under nitrogen. The solvent mixture for thin layer chromatography was chloroform:acetone:methanol:acetic acid:water (10:4:3:2:1). Samples were quantitated using a Phosphorimager (Molecular Dynamics).
This ability of SUS is not limited to colon cancer cells; primary fibroblasts and immortalized keratinocytes can increase ceramide levels and undergo apoptosis in response to SUS. […] Forty-eight hours after exposure to 200 μM SUS greater than 70% of the cells had undergone apoptosis and ceramide levels were 8.2 and 4.7 fold increased in HDF and HaCat cells, respectively. […]

HCT116 cells [6] = format: cell-based, human
Protocol: FIGS. 1A, 1B and 1C NSAID induce apoptosis in human colorectal cancer cells. In FIG. […] Cells were collected at the indicated times, fixed and stained with Hoechst 33258 (23). The cells were counted and those with fragmented nuclei were scored as apoptotic. In FIG. 1B, HCT116 and SW480 cells were treated with SUS or INDO for 60 hours, harvested and stained as described above. Cells treated with SUS or INDO show the hallmarks of apoptosis.
This death appeared to be apoptotic, as it was accompanied by nuclear condensation and fragmentation (FIG. 1B) and exposure of phosphatidylserine groups on the cell surface, two hallmarks of apoptosis (11, 12).

HCT116 cells [7] = assay: Ceramide levels, E. coli diacylglycerol (DAG) kinase assay; format: cell-based, human
Protocol: Cells were harvested and ceramide was quantified. The first lane of each panel corresponds to a ceramide standard (ceramide type III, Sigma). […] HCT116 and SW480 cells were treated with SUS or INDO as indicated. Ceramide levels were determined as described above. […] Control cells were treated with DMSO vehicle only. Cells were harvested at the indicated times following treatment and ceramide levels were determined as described above. The data are plotted as the mean of at least two experiments with the error bars corresponding to the standard deviation.
as §3

COX in HCT116 cells = assay: COX activity in treated cells; format: cell-based, human

CSc1ccc(/C=C2/C(C)=C(CC(=O)O)c3cc(F)ccc32)cc1 [SUS, sulindac sulfide]
decrease in sphingomyelin levels (SW480 cells [1]; 48 hours after SUS treatment): 40-50% | decrease in sphingomyelin levels (SW480 cells [1]; suboptimal doses of SUS): inadequate to decrease sphingomyelin levels | decrease in sphingomyelin levels (HCT116 cells [2]; 48 hours after SUS treatment): 40-50% | decrease in sphingomyelin levels (HCT116 cells [2]; suboptimal doses of SUS): inadequate to decrease sphingomyelin levels | cell death (SW480 cells [3]): not at 100 μM | COX activity, % of controls (COX in SW480 cells; 50 μM SUS): 74+/-22% | COX activity, % of controls (COX in SW480 cells; 200 μM SUS): 37+/-27% | cytotoxicity at 200 µM [4]: > 70% | fold induction at 200 µM [5]: 4.7 | apoptosis (HCT116 cells [6]; 200 μM SUS, 16 hours): the majority of cells had not yet undergone apoptosis | cell death (HCT116 cells [6]; SUS 50 μM): induced neither | apoptosis (HCT116 cells [6]; SUS 125 μM, with or without 10 μM CHX, 48 hours): underwent apoptosis | ceramide levels early after treatment (HCT116 cells [7]; 8 hours post-treatment, before morphologic features of apoptosis): increased to substantial levels | fold induction at 125 µM (HCT116 cells [7]; Homo sapiens, HCT-116, SUS 125 μM, with or without 10 μM CHX, 48 hours, read-out: fold increase in ceramide levels relative to vehicle controls): 10 ± 0.4 | ceramide induction (HCT116 cells [7]; SUS 50 μM): induced neither | ceramide induction (HCT116 cells [7]; SUS 125 μM): induced both cell death and ceramide | time of maximum ceramide induction (HCT116 cells [7]; SUS 125 μM): 24 to 48 h | COX activity, % relative to controls (COX in HCT116 cells; 50 μM SUS): 98+/-30% | COX activity, % of controls (COX in HCT116 cells; 125 μM SUS): 21+/-15%
